In brackets after ≈: the same amount, converted by molar mass. Entries after “also recorded” stand apart in the source; their conditions may differ. Like-named read-outs stand apart in the source and are kept apart here. A value given as a limit tells only on which side of the number the result lay.

The test system of one test is PS. aerureus 18S-H. Nature of the test: Minimum inhibitory concentration, agar dilution, Ps. 18S-H. In kind it is cell-based, Pseudomonas aeruginosa 18S-H. The following applies: Pseudomonas aeruginosa, 18SH, read-out: Minimum Inhibitory Concentration (MIC), PS. aerureus 18S-H. The procedure: (§1) Determination of Minimum Inhibitory Concentrations. The screening experiments in vitro were carried out for antibacterial activities of the phloroglucide analogs II-VII, XII-XIV, bifunctional cephalosporins VIII and IX, as well as 7-(phloroglucidamido)cephalosporins X and XI. Cephalosporins XV and XVI were used as the reference compounds. The lowest concentrations of antibiotics needed for prevention of visible growth of microorganisms; reported as the average values of duplicate determinations. Minimum inhibitory concentrations (MIC) values obtained by use of an agar dilution method whereby organisms were deposited onto medicated agar plates by the replication device of Steers et al [Steers, F. et al. Antibiot. Chemother. 1959, 9, 307].
(In general: In agar dilution, organisms are placed on agar that contains the substance at set levels.)

For test [1], the system named is β-lactamases of S. aureus 95 and Ps. aeruginosa 18S-H. Description: Behaviour towards β-lactamases (statements in words). In kind it is biochemical. The source says:
(§2) Determination of Minimum Protective Concentrations. The β-lactamase inhibitory properties of cephalosporin-phloroglucide esters VIII and IX as well as 7-(phloroglucidamido)cephalosporins X and XI were studied. Cephalosporins XV and XVI as well as clavulanic acid (XVII) were used in vitro as the reference compound. The average values of duplicate determinations and the ability of compounds to inhibit the hydrolysis of 3-[E-(2,4-dinitro)styryl]-(6R,7R)-7-(2-thienylacetamido)-3-cephem-4-carboxylic acid by β-lactamases from S. aureus 95 and Ps. aeruginosa 18S-H. Minimum protective concentrations (MPC) values were determined by the procedure of O'Callaghan ct al. [O'Callaghan C. H. ct al. Antimicrob. Agents Chemother. 1972, 1, 283] and are the lowest concentrations of β-lactams needed to protect the indicator from hydrolysis by β-lactamases under standard test conditions within 40 min. The hydrolysis of indicator was evidenced by the appearance of a distinct red color.

Test [2] addresses T1, β-lactamase of S. aureus 95 (Staphylococcus aureus, UniProt P00807).
T1 construct: chromogenic cephalosporin (nitrocefin type) hydrolysis
Nature of the test: Minimum protective concentration against β-lactamase of S. aureus 95. The following applies: protection of chromogenic cephem indicator from hydrolysis within 40 min, average of duplicates. It is filed as biochemical.
From the text: as §2

For another test, the system named is S. aureus FDA 209P. Description: Minimum inhibitory concentration, agar dilution, S. aureus FDA 209P. It is filed as cell-based, Staphylococcus aureus FDA 209P. Particulars: for MIC: Staphylococcus aureus, FDA209P, agar dilution, average of duplicate determinations; for antibacterial activity in words, S. aureus FDA 209P: compared with corresponding phloroglucides. The method, then:
as §1

For another test, the system named is S. aureus 95. Nature of the test: Minimum inhibitory concentration, agar dilution, S. aureus 95. In kind it is cell-based, Staphylococcus aureus 95. Particulars: for activity against β-lactamase producing microorganisms, in words: i.e., S. aureus 95. The method, then:
as §1

The next test has as its system C. albicans. Description: Minimum inhibitory concentration, agar dilution, C. albicans. In kind it is cell-based. The following applies: Candida albicans, read-out: Minimum Inhibitory Concentration (MIC), C. albicans. The method, then:
as §1

For test [3], the system named is β-lactamase of PS. aeruginosa 18S-H. Nature of the test: Minimum protective concentration against β-lactamase of Ps. aeruginosa 18S-H. In kind it is biochemical. The following applies: protection of chromogenic cephem indicator from hydrolysis within 40 min, average of duplicates.
From the text: as §2

In a further test the test system is Ps. aerureus 1101-75. Description: Minimum inhibitory concentration, agar dilution, Ps. 1101-75. It is filed as cell-based, Pseudomonas aeruginosa. The procedure: as §1
Test [4] has as its system pathogenic microorganisms. Nature of the test: Antibacterial activity in vitro (statements in words). In kind it is cell-based. The method, then: as §1
Setting [5] is: Staphylococcus aureus, 95, agar dilution, average of duplicates, β-lactamase-producing, methicillin resistant organism, read-out: Minimum Inhibitory Concentration (MIC), S. aureus 95.
[6] abbreviates: agar dilution, average of duplicate determinations.
The mark [7] stands for this setting: Pseudomonas aeruginosa, 110175, agar dilution, average of duplicate determinations, read-out: Minimum Inhibitory Concentration (MIC), Ps. aerureus 1101-75.

T1 sequence (P00807 25-281): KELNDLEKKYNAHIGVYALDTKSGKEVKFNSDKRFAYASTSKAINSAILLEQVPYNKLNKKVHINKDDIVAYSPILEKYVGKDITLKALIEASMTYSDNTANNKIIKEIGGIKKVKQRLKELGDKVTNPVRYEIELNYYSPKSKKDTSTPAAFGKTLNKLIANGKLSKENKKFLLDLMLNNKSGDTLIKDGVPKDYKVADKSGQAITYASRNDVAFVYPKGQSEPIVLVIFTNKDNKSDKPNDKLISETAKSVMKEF

With `O=C(COc1ccccc1)N[C@@H]1C(=O)N2C(C(=O)O)=C(COC(=O)c3cccc(C(=O)c4cc(Cl)cc(C(=O)c5ccccc5O)c4O)c3O)CS[C@H]12` [IX, 3-{3-[5-Chloro-2-hydroxy-3-(2-hydroxybenzoyl)benzoyl]-2-hydroxy-benzoyloxymethyl}-7-phenoxyacetamido-3-cephem-4-carboxylic Acid], the MIC was found to be 3.13 µg/mL (≈ 4.12 µM) in the test on PS. aerureus 18S-H; 0.9 µg/mL (≈ 1.19 µM) against S. aureus FDA 209P; 2.1 µg/mL (≈ 2.77 µM) in the test with S. aureus 95 (setting [5]); 6.47 µg/mL (≈ 8.52 µM) in the test on C. albicans (setting [6]); 1.37 µg/mL (≈ 1.8 µM) in the test with Ps. aerureus 1101-75 (setting [7]). In [1], the “hydrolysis by / stability towards β-lactamases, in words” value is “underwent hydrolysis to liberate their phloroglucidc components”. Besides, in test [2], the “Minimum Protective Concentration (MPC), β-lactamase of S. aureus 95” value worked out at 4.81 µg/mL. The “antibacterial activity in words, S. aureus FDA 209P” value in the test with S. aureus FDA 209P was “greater antibacterial activity than the corresponding phloroglucides (II) and (III) against S. aureus FDA 209P”. The “Minimum Protective Concentration (MPC), β-lactamase of PS. aeruginosa 18S-H” value in test [3] amounted to 5.98 µg/mL.
Regarding `O=C(COc1ccccc1)N[C@@H]1C(=O)N2C(C(=O)O)=C(COC(=O)c3cccc(Cc4cc(Cl)cc(Cc5ccccc5O)c4O)c3O)CS[C@H]12` [VIII, 3-{3-[5-Chloro-2-hydroxy-3-(2-hydroxybenzyl)benzyl]-2-hydroxy-benzoyloxymethyl}-7-phenoxyacetamido-3-cephem-4-carboxylic Acid], the MIC was 1.24 µg/mL (≈ 1.7 µM) with PS. aerureus 18S-H; 0.41 µg/mL (≈ 0.561 µM) with S. aureus FDA 209P; 1.2 µg/mL (≈ 1.64 µM) with S. aureus 95 (setting [5]); 5.86 µg/mL (≈ 8.01 µM) with C. albicans (setting [6]); 0.98 µg/mL (≈ 1.34 µM) in the test on Ps. aerureus 1101-75 (setting [7]). For the same compound, in test [4], the “antibacterial activity in words” value is “broadened spectrum of antibacterial activity in vitro; also recorded: less activity against other pathogenic microorganisms; also recorded: phloroglucide-like antibacterial activity”. Moreover, the “hydrolysis by / stability towards β-lactamases, in words” value in test [1] is recorded as “underwent hydrolysis to liberate their phloroglucidc components”. Besides, in [2], the “Minimum Protective Concentration (MPC), β-lactamase of S. aureus 95” value came out at 7.08 µg/mL. In addition, the “antibacterial activity in words, S. aureus FDA 209P” value in the test with S. aureus FDA 209P is “greater antibacterial activity than the corresponding phloroglucides (II) and (III) against S. aureus FDA 209P”. Further, in test [3], the “Minimum Protective Concentration (MPC), β-lactamase of PS. aeruginosa 18S-H” value was 6.74 µg/mL.
Take `CC(=O)OCC1=C(C(=O)O)N2C(=O)[C@@H](NC(=O)COc3ccccc3)[C@H]2SC1` [XV, reference compound]: the MIC in the test on PS. aerureus 18S-H was more than 145 µg/mL; in the test with S. aureus FDA 209P, 0.7 µg/mL (≈ 1.72 µM); in the test on S. aureus 95 (Staphylococcus aureus, 95, read-out: Minimum Inhibitory Concentration (MIC), S. aureus 95), more than 145 µg/mL; in the test with C. albicans, more than 145 µg/mL; with Ps. aerureus 1101-75 (Pseudomonas aeruginosa, 110175, read-out: Minimum Inhibitory Concentration (MIC), Ps. aerureus 1101-75) it was more than 145 µg/mL. Moreover, in [1], the “hydrolysis by / stability towards β-lactamases, in words” value is “susceptible to hydrolysis by β-lactamases”. In addition, the “Minimum Protective Concentration (MPC), β-lactamase of S. aureus 95” value in test [2] was determined as 1.35 µg/mL. Besides, the “activity against β-lactamase producing microorganisms, in words” value in the test on S. aureus 95 is given as “did not show significant activity”. Also, in [3], the “Minimum Protective Concentration (MPC), β-lactamase of PS. aeruginosa 18S-H” value amounted to 0.97 µg/mL.
For the compound `CO/N=C(\C(=O)N[C@@H]1C(=O)N2C(C(=O)O)=C(COC(C)=O)CS[C@H]12)c1csc(N)n1` [XVI, reference compound], the MIC in the test on PS. aerureus 18S-H is 135 µg/mL (≈ 296 µM); against S. aureus FDA 209P it was 1.7 µg/mL (≈ 3.73 µM); in the test with S. aureus 95 (setting [5]) it was 40.6 µg/mL (≈ 89.1 µM); with C. albicans (setting [6]), more than 145 µg/mL; in the test with Ps. aerureus 1101-75 (setting [7]), 69.9 µg/mL (≈ 153 µM). In addition, the “hydrolysis by / stability towards β-lactamases, in words” value in test [1] is “susceptible to hydrolysis by β-lactamases”. Besides, the “Minimum Protective Concentration (MPC), β-lactamase of S. aureus 95” value in test [2] stood at 2.72 µg/mL. In addition, the “activity against β-lactamase producing microorganisms, in words” value in the test on S. aureus 95 is given as “did not show significant activity”. Further, the “Minimum Protective Concentration (MPC), β-lactamase of PS. aeruginosa 18S-H” value in [3] was determined as 1.03 µg/mL.
